Patent US9926282B2, “Phthalazinones and isoquinolinones as rock inhibitors” (BRISTOL-MYERS SQUIBB COMPANY, priority 2013, dated 2018)
Structures can show the parent of a compound that is named as a salt.

Legend:
ROCK1 = ROCK1 (Homo sapiens (Human), UniProt Q13464); assay: ROCK assay (LABCHIP peptide phosphorylation), ROCK1; assay type: biochemical; details: 5 μM ATP, 1.5 μM peptide substrate; read-out: ROCK1 IC50
ROCK2 = ROCK2 (Homo sapiens (Human), UniProt O75116); assay: ROCK assay (LABCHIP peptide phosphorylation), ROCK2; assay type: biochemical; details: 5 μM ATP, 1.5 μM peptide substrate
Chain of ROCK2 (O75116 whole entry, species assumed): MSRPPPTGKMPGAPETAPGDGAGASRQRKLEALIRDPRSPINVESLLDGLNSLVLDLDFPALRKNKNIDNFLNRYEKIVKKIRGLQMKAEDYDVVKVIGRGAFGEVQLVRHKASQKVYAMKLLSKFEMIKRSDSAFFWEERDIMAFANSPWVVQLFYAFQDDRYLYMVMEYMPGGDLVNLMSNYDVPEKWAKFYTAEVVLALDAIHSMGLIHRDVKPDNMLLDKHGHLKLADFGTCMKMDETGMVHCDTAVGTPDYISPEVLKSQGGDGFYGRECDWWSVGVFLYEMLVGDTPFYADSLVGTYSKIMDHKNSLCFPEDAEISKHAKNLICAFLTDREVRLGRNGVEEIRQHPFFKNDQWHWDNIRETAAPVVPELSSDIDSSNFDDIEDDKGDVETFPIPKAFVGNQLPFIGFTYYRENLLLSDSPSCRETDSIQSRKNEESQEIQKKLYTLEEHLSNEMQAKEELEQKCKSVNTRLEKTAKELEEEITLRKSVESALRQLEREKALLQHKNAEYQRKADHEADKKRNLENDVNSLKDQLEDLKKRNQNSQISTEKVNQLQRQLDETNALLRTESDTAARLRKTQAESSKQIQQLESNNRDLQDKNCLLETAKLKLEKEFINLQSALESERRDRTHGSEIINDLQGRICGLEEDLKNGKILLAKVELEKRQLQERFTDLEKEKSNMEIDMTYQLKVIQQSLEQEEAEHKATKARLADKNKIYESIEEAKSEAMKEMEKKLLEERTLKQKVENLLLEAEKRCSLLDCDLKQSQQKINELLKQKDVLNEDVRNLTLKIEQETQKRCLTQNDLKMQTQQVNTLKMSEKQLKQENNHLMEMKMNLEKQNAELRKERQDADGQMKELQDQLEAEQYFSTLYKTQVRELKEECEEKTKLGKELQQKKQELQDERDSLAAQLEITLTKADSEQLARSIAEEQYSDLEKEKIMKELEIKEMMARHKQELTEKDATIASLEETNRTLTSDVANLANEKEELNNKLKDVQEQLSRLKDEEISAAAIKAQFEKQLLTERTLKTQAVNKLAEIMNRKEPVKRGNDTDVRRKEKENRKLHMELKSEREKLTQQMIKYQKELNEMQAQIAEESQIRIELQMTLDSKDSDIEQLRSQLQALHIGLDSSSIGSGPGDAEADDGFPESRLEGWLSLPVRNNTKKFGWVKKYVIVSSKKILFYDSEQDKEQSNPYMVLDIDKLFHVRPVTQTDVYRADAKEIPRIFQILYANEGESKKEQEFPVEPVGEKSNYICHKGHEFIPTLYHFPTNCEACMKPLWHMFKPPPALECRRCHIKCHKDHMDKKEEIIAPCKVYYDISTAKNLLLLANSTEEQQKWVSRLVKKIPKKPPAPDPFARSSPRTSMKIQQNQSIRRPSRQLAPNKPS

Chain of ROCK1 (Q13464 whole entry, species assumed): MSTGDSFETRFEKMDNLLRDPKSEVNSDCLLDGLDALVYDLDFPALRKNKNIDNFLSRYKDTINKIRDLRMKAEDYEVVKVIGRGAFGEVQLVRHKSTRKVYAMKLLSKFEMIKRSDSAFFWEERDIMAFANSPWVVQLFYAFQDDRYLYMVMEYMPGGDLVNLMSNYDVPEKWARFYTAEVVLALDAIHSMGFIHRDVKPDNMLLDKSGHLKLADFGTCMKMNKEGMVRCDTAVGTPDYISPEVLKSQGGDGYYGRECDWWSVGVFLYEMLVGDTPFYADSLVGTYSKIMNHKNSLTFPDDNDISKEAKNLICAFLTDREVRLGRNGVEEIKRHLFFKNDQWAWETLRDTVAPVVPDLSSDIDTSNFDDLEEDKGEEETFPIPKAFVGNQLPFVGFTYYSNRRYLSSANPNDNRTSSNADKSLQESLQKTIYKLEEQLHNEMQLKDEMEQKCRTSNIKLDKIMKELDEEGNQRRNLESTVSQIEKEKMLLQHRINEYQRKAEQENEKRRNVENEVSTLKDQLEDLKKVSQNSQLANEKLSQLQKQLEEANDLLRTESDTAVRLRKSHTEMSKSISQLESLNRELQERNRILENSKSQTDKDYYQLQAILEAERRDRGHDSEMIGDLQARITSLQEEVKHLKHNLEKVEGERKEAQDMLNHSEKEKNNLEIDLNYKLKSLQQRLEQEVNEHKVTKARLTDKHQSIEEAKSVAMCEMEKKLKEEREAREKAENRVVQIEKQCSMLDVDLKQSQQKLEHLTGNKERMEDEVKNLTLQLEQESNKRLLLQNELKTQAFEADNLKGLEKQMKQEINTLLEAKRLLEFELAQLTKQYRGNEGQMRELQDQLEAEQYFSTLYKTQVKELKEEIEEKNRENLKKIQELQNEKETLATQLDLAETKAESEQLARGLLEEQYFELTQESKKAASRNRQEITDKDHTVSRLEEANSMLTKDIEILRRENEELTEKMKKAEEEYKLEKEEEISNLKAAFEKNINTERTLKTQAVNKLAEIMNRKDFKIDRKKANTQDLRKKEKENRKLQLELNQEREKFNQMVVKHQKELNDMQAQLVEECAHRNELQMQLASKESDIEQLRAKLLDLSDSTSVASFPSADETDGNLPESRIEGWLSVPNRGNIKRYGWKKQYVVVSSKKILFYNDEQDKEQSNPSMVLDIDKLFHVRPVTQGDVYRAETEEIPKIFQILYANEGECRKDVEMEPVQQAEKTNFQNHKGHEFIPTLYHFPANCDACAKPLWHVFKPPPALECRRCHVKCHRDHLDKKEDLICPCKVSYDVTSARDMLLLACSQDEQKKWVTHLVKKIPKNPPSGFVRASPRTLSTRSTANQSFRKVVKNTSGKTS

Structure (SMILES) | IC50 (ROCK1) | IC50 (ROCK2)
O=C(Nc1ccc(-c2n[nH]c(=O)c3ccccc23)cc1)c1cnn(CC2CC2)c1 [Example 375, 1-(Cyclopropylmethyl)-N-(4-(4-oxo-3,4-dihydrophthalazin-1-yl)phenyl)-1H-pyrazole-4-carboxamide, TFA] | 0.1 to 100 nM | –
CN(Cc1ccccc1)C(=O)Cc1ccc(-c2n[nH]c(=O)c3ccccc23)cc1 [Example 8, N-benzyl-N-methyl-2-[4-(4-oxo-3,4-dihydrophthalazin-1-yl)phenyl]acetamide] | – | 1000 to 50000 nM
CC(C)=Cn1nc(C(=O)Nc2ccc(-c3n[nH]c(=O)c4ccccc34)cc2)c2ccc(F)cc21 [Example 179, 6-fluoro-1-(2-methylprop-1-en-1-yl)-N-[4-(4-oxo-3,4-dihydrophthalazin-1-yl)phenyl]-1H-indazole-3-carboxamide] | 0.1 to 100 nM | 0.1 to 100 nM
CC(C)Oc1ccc2cc(C(=O)Nc3ccc(-c4n[nH]c(=O)c5ccccc45)cc3)[nH]c2c1 [Example 128, N-[4-(4-oxo-3,4-dihydrophthalazin-1-yl)phenyl]-6-(propan-2-yloxy)-1H-indole-2-carboxamide] | 0.1 to 100 nM | 0.1 to 100 nM
O=C(O)COc1ccc2c(c1)N(C(=O)Cc1ccc(-c3n[nH]c(=O)c4ccccc34)cc1)CC2 [Example 290, 2-((1-(2-(4-(4-Oxo-3,4-dihydrophthalazin-1-yl)phenyl)acetyl)indolin-6-yl)oxy)acetic Acid] | 0.1 to 100 nM | 0.1 to 100 nM
Cc1cc(NC(=O)c2cn(CC(C)(C)O)c3ccccc23)ccc1-c1n[nH]c(=O)c2ccccc12 [Example 302, 1-(2-hydroxy-2-methylpropyl)-N-[3-methyl-4-(4-oxo-3,4-dihydrophthalazin-1-yl)phenyl]-1H-indole-3-carboxamide] | 0.1 to 100 nM | 0.1 to 100 nM
O=C(Nc1ccc(-c2n[nH]c(=O)c3ccccc23)cc1)c1cccc(N2CCCC2)c1 [Example 62, N-[4-(4-oxo-3,4-dihydrophthalazin-1-yl)phenyl]-3-(pyrrolidin-1-yl)benzamide] | 0.1 to 100 nM | 0.1 to 100 nM
COc1ccc2c(c1)N(C(=O)Nc1ccc(-c3c[nH]c(=O)c4ccccc34)cc1)CC2 [Example 80, 6-Methoxy-N-(4-(1-oxo-1,2-dihydroisoquinolin-4-yl)phenyl)indoline-1-carboxamide] | 0.1 to 100 nM | 0.1 to 100 nM
O=C(Nc1ccc(-c2n[nH]c(=O)c3ccccc23)cc1)c1cnn(-c2ccc(Cl)cc2)c1 [Example 388, 1-(4-Chlorophenyl)-N-(4-(4-oxo-3,4-dihydrophthalazin-1-yl)phenyl)-1H-pyrazole-4-carboxamide] | 101 to 1000 nM | 0.1 to 100 nM
CC(C)c1c(C(=O)Nc2ccc(-c3n[nH]c(=O)c4ccccc34)cc2)nnn1-c1ccccc1 [Example 221, N-[4-(4-oxo-3,4-dihydrophthalazin-1-yl)phenyl]-1-phenyl-5-(propan-2-yl)-1H-1,2,3-triazole-4-carboxamide] | 101 to 1000 nM | 101 to 1000 nM
CC(=O)N1CC(Cn2nc(C(=O)Nc3ccc(-c4n[nH]c(=O)c5ccccc45)c(Cl)c3)c3ccccc32)C1 [Example 329, 1-((1-Acetylazetidin-3-yl)methyl)-N-(3-chloro-4-(4-oxo-3,4-dihydrophthalazin-1-yl)phenyl)-1H-indazole-3-carboxamide] | 0.1 to 100 nM | 0.1 to 100 nM
Cc1nnc(NC(=O)Cc2ccc(-c3n[nH]c(=O)c4ccccc34)cc2)s1 [Example 31, N-(5-methyl-1,3,4-thiadiazol-2-yl)-2-[4-(4-oxo-3,4-dihydrophthalazin-1-yl)phenyl]acetamide] | 1000 to 50000 nM | 0.1 to 100 nM
Cn1nc(C(=O)Nc2ccc(-c3n[nH]c(=O)c4ccccc34)c(CO)c2)c2ccccc21 [Example 363, N-(3-(Hydroxymethyl)-4-(4-oxo-3,4-dihydrophthalazin-1-yl)phenyl)-1-methyl-1H-indazole-3-carboxamide] | 1000 to 50000 nM | 0.1 to 100 nM
O=c1[nH]nc(-c2ccc(Nc3nnc(-c4ccccc4)s3)cc2)c2ccccc12 [Example 87, 4-(4-((5-Phenyl-1,3,4-thiadiazol-2-yl)amino)phenyl)phthalazin-1(2H)-one] | 101 to 1000 nM | –
O=C(Cc1ccc(-c2n[nH]c(=O)c3ccccc23)cc1)N1Cc2ccccc2C1 [Example 1, 4-(4-(2-(Isoindolin-2-yl)-2-oxoethyl)phenyl)phthalazin-1(2H)-one] | – | 0.1 to 100 nM
O=C(Nc1ccc(-c2n[nH]c(=O)c3ccccc23)cc1)c1cnn2ccc(OCCO)cc12 [Example 186, 5-(2-hydroxyethoxy)-N-[4-(4-oxo-3,4-dihydrophthalazin-1-yl)phenyl]pyrazolo[1,5-a]pyridine-3-carboxamide] | 101 to 1000 nM | –
CC(O)Cn1cc(C(=O)Nc2ccc(-c3n[nH]c(=O)c4ccccc34)cc2)cn1 (stereo not drawn) [Example 387, 1-(2-Hydroxypropyl)-N-(4-(4-oxo-3,4-dihydrophthalazin-1-yl)phenyl)-1H-pyrazole-4-carboxamide] | 1000 to 50000 nM | –
O=C(Nc1ccc(-c2n[nH]c(=O)c3ccccc23)cc1)c1cnn(CC(F)(F)C(F)F)c1 [Example 383, N-(4-(4-Oxo-3,4-dihydrophthalazin-1-yl)phenyl)-1-(2,2,3,3-tetrafluoropropyl)-1H-pyrazole-4-carboxamide, TFA] | 101 to 1000 nM | –
O=C(Nc1ccc(-c2n[nH]c(=O)c3ccccc23)cc1)c1cnn(C2CCC2)c1 [Example 385, TFA] | 0.1 to 100 nM | –

Structure (SMILES) | IC50 (ROCK1) | IC50 (ROCK2)
O=c1[nH]nc(-c2ccc(Nc3nc4ccccc4s3)cc2)c2ccccc12 [Example 84] | 101 to 1000 nM | –
O=C(Nc1ccc(-c2n[nH]c(=O)c3ccccc23)cc1)c1cnn(CC(F)(F)F)c1 [Example 376, N-(4-(4-Oxo-3,4-dihydrophthalazin-1-yl)phenyl)-1-(2,2,2-trifluoroethyl)-1H-pyrazole-4-carboxamide, TFA] | 101 to 1000 nM | –
O=C(Cc1ccc(-c2n[nH]c(=O)c3ccccc23)cc1)Nc1ccncc1 [Example 7, 2-[4-(4-oxo-3,4-dihydrophthalazin-1-yl)phenyl]-N-(pyridin-4-yl)acetamide] | – | 0.1 to 100 nM
O=C(Nc1ccc(-c2n[nH]c(=O)c3ccccc23)cc1)c1cn[nH]c1 [Example 391, N-(4-(4-Oxo-3,4-dihydrophthalazin-1-yl)phenyl)-1H-pyrazole-4-carboxamide, TFA] | 101 to 1000 nM | –
O=C(Nc1ccc(-c2n[nH]c(=O)c3ccccc23)c(CO)c1)c1nn(CCC2CCOCC2)c2ccccc12 [Example 361, N-(3-(Hydroxymethyl)-4-(4-oxo-3,4-dihydrophthalazin-1-yl)phenyl)-1-(2-(tetrahydro-2H-pyran-4-yl)ethyl)-1H-indazole-3-carboxamide] | 101 to 1000 nM | –
O=C(Nc1ccc(-c2c[nH]c(=O)c3ccccc23)cc1)c1ccc(N2CCOCC2)cc1 [Example 250, 4-Morpholino-N-(4-(1-oxo-1,2-dihydroisoquinolin-4-yl)phenyl)benzamide] | 101 to 1000 nM | –
O=C(Nc1ccc(-c2n[nH]c(=O)c3ccccc23)cc1)c1cn2ccnc(Cl)c2n1 [Example 124, 8-chloro-N-[4-(4-oxo-3,4-dihydrophthalazin-1-yl)phenyl]imidazo[1,2-a]pyrazine-2-carboxamide] | 101 to 1000 nM | –
O=C(Oc1ccc(-c2n[nH]c(=O)c3ccccc23)cc1)N1Cc2ccccc2C1 [Example 68, 4-(4-Oxo-3,4-dihydrophthalazin-1-yl)phenyl isoindoline-2-carboxylate] | – | 0.1 to 100 nM
O=C(Nc1ccc(-c2n[nH]c(=O)c3ccccc23)cc1)c1csc(-c2cc(F)cc(F)c2)n1 [Example 49, 2-(3,5-difluorophenyl)-N-[4-(4-oxo-3,4-dihydrophthalazin-1-yl)phenyl]-1,3-thiazole-4-carboxamide] | – | 0.1 to 100 nM
O=C(Nc1ccc(-c2n[nH]c(=O)c3ccccc23)cc1)c1csc(-c2ccncc2)n1 [Example 45, N-(4-(4-Oxo-3,4-dihydrophthalazin-1-yl)phenyl)-2-(pyridin-4-yl)thiazole-4-carboxamide] | – | 0.1 to 100 nM
O=C(Cc1ccc(-c2n[nH]c(=O)c3ccccc23)cc1)Nc1cccnc1 [Example 5, 2-[4-(4-oxo-3,4-dihydrophthalazin-1-yl)phenyl]-N-(pyridin-3-yl)acetamide] | – | 101 to 1000 nM
O=C(Cc1ccc(-c2n[nH]c(=O)c3ccccc23)cc1)NCc1ccccc1 [Example 6, N-benzyl-2-[4-(4-oxo-3,4-dihydrophthalazin-1-yl)phenyl]acetamide] | – | 101 to 1000 nM
O=C(Cc1ccc(-c2c[nH]c(=O)c3ccccc23)c(F)c1)N1Cc2ccccc2C1 [Example 256, 4-(2-Fluoro-4-(2-(isoindolin-2-yl)-2-oxoethyl)phenyl)isoquinolin-1(2H)-one] | 101 to 1000 nM | –
Cc1ccc2oc(Nc3ccc(-c4n[nH]c(=O)c5ccccc45)cc3)nc2c1 [Example 86, 4-{4-[(5-Methyl-1,3-benzoxazol-2-yl)amino]phenyl}-1,2-dihydrophthalazin-1-one] | 101 to 1000 nM | –
CC1(C)OB(c2ccc(CC(=O)N3Cc4ccccc4C3)c(F)c2)OC1(C)C [Example 36, 2-(2-Fluoro-4-(4,4,5,5-tetramethyl-1,3,2-dioxaborolan-2-yl)phenyl)-1-(isoindolin-2-yl)ethanone] | 1000 to 50000 nM | –
O=C(Cc1ccc(-c2n[nH]c(=O)c3ccccc23)cc1)N1CCc2ccccc2C1 [Example 4, 4-{4-[2-oxo-2-(1,2,3,4-tetrahydroisoquinolin-2-yl)ethyl]phenyl}-1,2-dihydrophthalazin-1-one] | – | 101 to 1000 nM
O=C(Nc1ccc(-c2n[nH]c(=O)c3ccccc23)cc1)c1cnn(C2CCS(=O)(=O)C2)c1 (stereo not drawn) [Example 396, 1-(1,1-Dioxidotetrahydrothiophen-3-yl)-N-(4-(4-oxo-3,4-dihydrophthalazin-1-yl)phenyl)-1H-pyrazole-4-carboxamide, TFA] | 101 to 1000 nM | –
CC(C)(O)Cn1nc(C(=O)Nc2ccc(-c3n[nH]c(=O)c4ccccc34)cc2F)c2ccccc21 [Example 358, N-(2-Fluoro-4-(4-oxo-3,4-dihydrophthalazin-1-yl)phenyl)-1-(2-hydroxy-2-methylpropyl)-1H-indazole-3-carboxamide] | 101 to 1000 nM | –
